Reference: paper PMC10302582, “Unveiling the Potential of BenzylethyleneAryl–Urea Scaffolds for the Design of New Onco Immunomodulating Agents” (Pharmaceuticals, 2023)

Key:
Jurkat T-cells = experiment: MTT cell proliferation assay, Jurkat T-cells; assay type: cell-based; details: 48 h treatment
Description: (§1) The action on cell proliferation caused by our developed compounds was studied using an MTT assay using the human tumor cell lines of HT-29 (colon adenocarcinoma) and A-549 (pulmonary adenocarcinoma), as well as toward the non-tumor cell line HEK-293 (human embryonic kidney cells), Jurkat T-cells and human microvessel endothelial cells (HMEC-1).
(§2) In general, 5 × 10^3 (HT-29, A549, HMEC-1, Jurkat and HEK-293) cells per well were seeded in 96-well plates with 1:1 dilutions of the compounds in a volume of 100 μL of the cell media. The 3-(4,5-dimethylthiazol-2-yl)-2,5-diphenyltetrazolium bromide (MTT; Sigma Chemical Co.) dye exclusion assay was performed, and after 48 h (37 °C, 5% CO2 in a humid atmosphere), 10 μL of MTT (5 mg/mL in phosphate-buffered saline, PBS) was added to each well and incubated for 3 h at 37 °C. After the supernatant was discarded, we solved the formazan crystal in 100 µL of DMSO. The absorbance was then registered at 550 nm using a plate lector. For all concentrations of any compound, cell viability was expressed as the percentage of the ratio between the mean absorbance of the treated cells and the mean absorbance of the untreated cells. Three to five experiments were performed to establish the IC50 values (i.e., concentration half inhibiting cell proliferation, we used GraphPad Prism 7 software).

[1] = test system: HT-29 (colon adenocarcinoma); experiment: MTT cell proliferation assay, HT-29; assay type: cell-based; details: Homo sapiens, HT-29; MTT, 48 h treatment; read-out: IC50 HT-29
Description: (§3) After the supernatant was discarded, we solved the formazan crystal in 100 µL of DMSO. The absorbance was then registered at 550 nm using a plate lector. For all concentrations of any compound, cell viability was expressed as the percentage of the ratio between the mean absorbance of the treated cells and the mean absorbance of the untreated cells. Three to five experiments were performed to establish the IC50 values (i.e., concentration half inhibiting cell proliferation, we used GraphPad Prism 7 software).

[2] = test system: HEK-293 (human embryonic kidney cells); experiment: MTT cell proliferation assay, HEK-293; assay type: cell-based; details: HEK293, 48 h treatment
Description: as §1, §2

[3] = test system: human microvessel endothelial cells (HMEC-1); experiment: MTT cell proliferation assay, HMEC-1; assay type: cell-based; details: 48 h treatment
Description: as §1, §2

[4] = test system: A-549 (pulmonary adenocarcinoma); experiment: MTT cell proliferation assay, A-549; assay type: cell-based; details: Homo sapiens, A549; MTT, 48 h treatment; read-out: IC50 A-549
Description: as §3

HMEC-1 endothelial cells = experiment: Microvessel formation inhibition assay on Matrigel; assay type: cell-based, human; details: HMEC-1 on Matrigel
Description: The antiangiogenic action of the selected compounds, as well as the reference compounds, was evaluated by determining the effect on the formation of new microvessels formed by HMEC-1 endothelial cells on a Matrigel matrix.
We used IBIDI μ-slide angiogenesis plates (IBIDI, Martins ried, Germany). The wells were coated with 15 μL of Matrigel® (10 mg/mL, BD Biosciences, San Jose, CA, USA) at 4 °C and incubated at 37 °C for at least 30 min. Afterward, the HMEC-1 cells were seeded at 2 × 10^4 cells/well in 25 μL of medium and were left for 30 min at 37 °C while they attached. Then, the compounds were added in serial doses in 25 μL of the medium, and after several hours (maximum 24 h) of incubation at 37 °C, pictures for the wells were taken to evaluate the formation of microvessels.

PD-L1 = target: T1, PD-L1 (Homo sapiens, UniProt Q9NZQ7); experiment: PD-L1 relative quantification by flow cytometry in HT-29 cells; assay type: cell-based; details: for total PD-L1 (%) expression: HT-29 cells, 24 h, relative to DMSO control = 100
T1 construct: assess the effect of our new ureas on these two proteins only on the HT-29 cancer cell line through the use of flow cytometry; endogenous in cells; host or cells: HT-29
T1 sequence (Q9NZQ7 19-290): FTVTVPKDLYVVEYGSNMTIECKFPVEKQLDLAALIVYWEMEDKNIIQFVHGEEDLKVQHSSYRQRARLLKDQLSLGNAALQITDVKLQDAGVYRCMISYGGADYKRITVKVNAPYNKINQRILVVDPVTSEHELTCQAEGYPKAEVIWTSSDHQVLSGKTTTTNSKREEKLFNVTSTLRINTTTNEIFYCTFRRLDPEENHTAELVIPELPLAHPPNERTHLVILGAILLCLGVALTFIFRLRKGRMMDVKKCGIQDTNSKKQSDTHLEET
Description: (§4) The cells were incubated for a period of time of one day with doses of each of the selected compounds at two different doses: 20 and 100 µM concentrations.
(§5) The effects of the compounds on the target in the cancer cell lines compounds were tested using 20 and 100 µM doses. For that, 10^5 cells per well were seeded on a 12-well plate for 24 h with the corresponding dose of the tested compound in a total volume of 500 μL of cell media. To determine the total PD-L1 and VEGFR-2, the cells were collected and fixed with 4% in a PBS of formaldehyde. After this, a treatment with 0.5% in PBS Triton^TM X-100 permeabilized the membranes. Finally, the cells were treated with FITC Mouse monoclonal Anti-Human VEGFR-2 (ab184903) and Alexa Fluor® 647 Rabbit monoclonal Anti-PD-L1 (ab215251).
(§6) To determine surface PD-L1 and VEGFR-2, the assay used was similar to the above but avoided the permeabilization step (Triton^TM X-100).

VEGFR-2 = target: T2, VEGFR-2 (Homo sapiens, UniProt P35968); experiment: VEGFR-2 relative quantification by flow cytometry in HT-29 cells; assay type: cell-based; details: HT-29 cells, 20 μM, 24 h, relative to DMSO control = 100
T2 construct: assess the effect of our new ureas on these two proteins only on the HT-29 cancer cell line through the use of flow cytometry; endogenous in cells; host or cells: HT-29
T2 sequence (P35968 20-1356): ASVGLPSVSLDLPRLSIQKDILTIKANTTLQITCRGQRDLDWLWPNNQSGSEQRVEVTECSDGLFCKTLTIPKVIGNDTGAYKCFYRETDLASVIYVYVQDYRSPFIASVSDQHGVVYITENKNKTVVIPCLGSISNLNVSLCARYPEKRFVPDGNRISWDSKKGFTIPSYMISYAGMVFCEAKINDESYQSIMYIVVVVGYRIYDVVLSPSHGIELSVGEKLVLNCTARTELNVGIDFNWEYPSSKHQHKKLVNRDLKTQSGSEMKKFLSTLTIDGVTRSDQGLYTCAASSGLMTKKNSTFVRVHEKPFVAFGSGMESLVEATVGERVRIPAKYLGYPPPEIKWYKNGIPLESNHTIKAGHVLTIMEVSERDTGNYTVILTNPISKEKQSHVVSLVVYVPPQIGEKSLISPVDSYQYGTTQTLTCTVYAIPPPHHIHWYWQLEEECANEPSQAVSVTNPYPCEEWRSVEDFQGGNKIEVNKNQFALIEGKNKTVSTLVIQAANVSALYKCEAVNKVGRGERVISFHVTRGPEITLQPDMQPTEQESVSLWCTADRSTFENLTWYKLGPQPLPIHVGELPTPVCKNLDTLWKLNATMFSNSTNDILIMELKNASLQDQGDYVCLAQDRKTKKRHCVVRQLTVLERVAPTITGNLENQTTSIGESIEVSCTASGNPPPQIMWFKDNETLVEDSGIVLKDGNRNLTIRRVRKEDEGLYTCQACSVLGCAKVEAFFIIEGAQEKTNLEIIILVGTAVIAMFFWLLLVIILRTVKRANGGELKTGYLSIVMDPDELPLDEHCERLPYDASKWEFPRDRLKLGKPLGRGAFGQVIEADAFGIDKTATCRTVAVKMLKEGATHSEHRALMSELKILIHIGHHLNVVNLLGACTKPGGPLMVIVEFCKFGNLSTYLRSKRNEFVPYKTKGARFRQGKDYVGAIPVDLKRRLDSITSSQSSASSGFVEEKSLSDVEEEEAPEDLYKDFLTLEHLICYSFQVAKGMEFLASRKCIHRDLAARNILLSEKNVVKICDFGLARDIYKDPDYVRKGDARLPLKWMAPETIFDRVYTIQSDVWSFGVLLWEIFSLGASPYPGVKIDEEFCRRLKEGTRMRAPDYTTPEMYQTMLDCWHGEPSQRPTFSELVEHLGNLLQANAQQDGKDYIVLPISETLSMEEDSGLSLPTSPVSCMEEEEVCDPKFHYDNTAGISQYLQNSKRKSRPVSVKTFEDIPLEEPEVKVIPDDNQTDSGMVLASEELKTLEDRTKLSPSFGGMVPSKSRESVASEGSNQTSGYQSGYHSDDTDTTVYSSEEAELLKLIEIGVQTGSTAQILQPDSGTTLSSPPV
Description: as §4
as §5, with “membranes.” for “membranes. Finally, the cells were treated with FITC Mouse monoclonal Anti-Human VEGFR-2 (ab184903) and Alexa Fluor® 647 Rabbit monoclonal Anti-PD-L1 (ab215251).”
as §6

CD80 = CD80 detection on membrane of co-cultured THP-1; assay type: cell-based, human; details: 1:5 HT-29/THP-1; 24 h; relative to non-treated co-cultured THP-1
Text: (§7) Reducing the expression of CD11b has become a promising target for immune modulation in anticancer therapies. For that reason, we decided to study the effect of our compounds on CD11b in THP-1 cells co-cultured with HT-29. We also determined the relative amount of CD80, a common surface marker for monocytes.
(§8) The results are related to non-treated THP-1 cells when they were co-cultured with HT-29.
(§9) The action of the compounds on CDs in co-cultured THP-1 immune cells with cancer cell line HT-29 was tested by treating them with the compounds for 24 h/48 h (see Section 4.2.5). Surface CD11b and CD80 was determined by collecting THP-1 with trypsin, fixing with formaldehyde and staining with FITC Mouse monoclonal Anti-Human CD80 (Sigma-Aldrich SAB4700142) and Alexa Fluor® 647 Rabbit monoclonal Anti-CD11b (Merck #MABF366, Rahway, NJ, USA).

CD11b = CD11b detection on membrane of co-cultured THP-1; assay type: cell-based, human; details: 1:5 HT-29/THP-1; 24 h; relative to non-treated co-cultured THP-1
Text: as §7, §8, §9

[5] = test system: HT-29 cells co-cultured with THP-1; experiment: Cancer cell proliferation in co-cultures of HT-29 and THP-1; assay type: cell-based, human; details: 100 μM
Description: To establish the potential of the selected compounds as immunomodulator agents, we studied the effect of the selected compounds on HT-29 cell proliferation when co-cultured with human monocytic leukemia cell line THP-1. For the study, we used different proportions of cancer and immune cells. Standard protocol proportions were 1:5 cancer/immune cells. We include a test using a 2:1 proportion of HT-29 cells to THP-1 cells. The tests were performed for two periods of time: 24 and 48 h, using 100 μM doses of the selected compounds and BMS-8 as the reference compound.
(§10) To determine the action of the compounds on cancer cell proliferation in co-culture with immune cells, 10^5 or 2 × 10^5 of the HT-29 cells line were seeded in each well of 12-well plates and left at 37 °C for 24 h. Then, the cancer cells were treated with IFN-γ (10 ng/mL; human, Invitrogen®, Waltham, MA, USA) containing 5 × 10^5 or 10^5, respectively, of THP-1 cells per well and the corresponding compound at 100 μM or DMSO for the positive control. After 24 h/48 h of incubation, the supernatants were collected to establish the alive THP-1 cells using FSC and SCC flow cytometry. In addition, cancer cells were collected with trypsin, fixed with 4% in PBS paraformaldehyde and counted using flow cytometry.

[6] = test system: THP-1 cells co-cultured with HT-29; experiment: Immune cell proliferation in co-cultures of HT-29/THP-1; assay type: cell-based, human; details: 100 μM
Description: We also determined the effect of the selected compounds on the human monocyte cells THP-1 in the described co-cultures (see Table 6).
as §10

| SMILES | IC50 (Jurkat T-cells; Homo sapiens, Jurkat, 48 h) [µM] | IC50 [1] [µM] | IC50 [2] [µM] | IC50 ([3]; Homo sapiens, HMEC-1, 48 h) [µM] | IC50 [4] [µM] | melting point [°C] | IC50 (Jurkat T-cells) [µM] | other results |
| --- | --- | --- | --- | --- | --- | --- | --- | --- |
| COc1ccc(CCCc2cccc(NC(=O)Nc3ccc(Br)cc3)c2)cc1 [C.9] | > 100 | 1.9 ± 0.6 | 2.1 ± 0.2 | > 100 | 7 ± 1 |  |  |  |
| COc1ccc(CCCc2cccc(NC(=O)Nc3ccccc3F)c2)cc1 [C.5] | > 100 | 58 ± 16 | 24 ± 4 | > 100 | 29 ± 5 | 152 |  |  |
| COc1ccc(CCCc2cccc(NC(=O)Nc3cccc(F)c3)c2)cc1 [C.4] | > 100 | > 100 | 22 ± 5 | > 100 | > 100 | 154 |  |  |
| COc1ccc(CCCc2cccc(NC(=O)Nc3cccc(Br)c3)c2)cc1 [C.10] | ~20 | 11 ± 2 | 9 ± 4 | ~20 | 8 ± 2 | 141 to 144 | 18 ± 7 | IC50 [3]: 17 ± 7 µM |
| COc1ccc(CCCc2cccc(NC(=O)Nc3ccccc3Br)c2)cc1 [C.11] | ~20 | 15 ± 4 | 27 ± 4 | ~20 | 20 ± 5 | 137 to 140 | 26 ± 18 | IC50 [3]: 25 ± 1 µM |
| COc1ccc(CCCc2cccc(NC(=O)Nc3cccc(Cl)c3)c2)cc1 [C.7] | ~20 | 14 ± 3 | 14 ± 3 | ~20 | 19 ± 1 | 143 to 147 | 17 ± 1 | IC50 [3]: 18 ± 8 µM |
| CCN(CC)CCNC(=O)c1c(C)[nH]c(/C=C2\C(=O)Nc3ccc(F)cc32)c1C [Sunitinib, reference compound] |  |  |  |  |  |  |  | Minimum Active Conc. inhibiting microtube formation (HMEC-1 endothelial cells): 3 µM |
| COc1ccc(CCCc2cccc(NC(=O)Nc3ccccc3Cl)c2)cc1 [C.8] | > 100 | 47 ± 2 | 37 ± 8 | > 100 | > 100 | 134 to 136 |  |  |
| COc1ccc(CCCc2cccc(NC(=O)Nc3ccc(Cl)cc3)c2)cc1 [C.6] | > 100 | 4 ± 1 | 4 ± 1 | > 100 | 20 ± 10 | 179 to 182 |  |  |
| CNC(=O)c1cc(Oc2ccc(NC(=O)Nc3ccc(Cl)c(C(F)(F)F)c3)cc2)ccn1 [Sorafenib, sorafenib, reference compound] |  | 17 ± 4 | 5 ± 0.7 | 34 ± 3 | 27 ± 2 |  |  | effect on total PD-L1 (PD-L1; HT-29, at either of the tested doses (20 and 100 μM)): No significant effect; total PD-L1 (%) expression (PD-L1; 20 μM): 96 ± 49%; total PD-L1 (%) expression (PD-L1; 100 μM): 102 ± 10%; Minimum Active Conc. inhibiting microtube formation (HMEC-1 endothelial cells): 10 µM |
| COc1ccc(CCCc2cccc(NC(=O)Nc3cccc(OC)c3)c2)cc1 [C.13] | ~20 | 8 ± 5 | 15 ± 3 | ~20 | 18 ± 5 | 107 to 110 | 24 ± 4 |  |
| Cc1c(COc2ccc(CN3CCCCC3C(=O)O)cc2Br)cccc1-c1ccccc1 (stereo not drawn) [BMS-8, reference compound] | > 100 | 19 ± 2 | 60 ± 10 |  | 6 ± 1 |  |  | total VEGFR-2 (%) expression (VEGFR-2): 86 ± 21%; % CD80 expression in membrane of THP-1 (CD80): 93 ± 3%; % CD11b expression in membrane of THP-1 (CD11b): 79 ± 5%; HT-29 cancer cell proliferation in co-culture ([5]; 1:5 HT-29/THP-1, 24 h): 11 ± 6; HT-29 cancer cell proliferation in co-culture ([5]; 1:5 HT-29/THP-1, 48 h): 21 ± 3; HT-29 cancer cell proliferation in co-culture ([5]; 2:1 HT-29/THP-1, 24 h): 8 ± 1; HT-29 cancer cell proliferation in co-culture ([5]; 2:1 HT-29/THP-1, 48 h): 16 ± 2; inhibition of PD-L1 expression (PD-L1; HT-29, total PD-L1, 20 μM): around 15%; total PD-L1 (%) expression (PD-L1; 20 μM): 82 ± 21%; total PD-L1 (%) expression (PD-L1; 100 μM): 67 ± 20%; THP-1 cell proliferation in co-culture ([6]; 1:5 HT-29/THP-1, 24 h): 158 ± 6; THP-1 cell proliferation in co-culture ([6]; 1:5 HT-29/THP-1, 48 h): 124 ± 0; THP-1 cell proliferation in co-culture ([6]; 2:1 HT-29/THP-1, 24 h): 385 ± 12; THP-1 cell proliferation in co-culture ([6]; 2:1 HT-29/THP-1, 48 h): 186 ± 10 |
| COc1ccc(CCCc2cccc(NC(=O)Nc3ccccc3)c2)cc1 [C.2] | > 100 | 25 ± 5 | 12 ± 1 | > 100 | > 100 | 157 to 159 |  |  |
